Reference: patent publication US20150037397A1, “PHARMACEUTICAL COMPOSITIONS OF PYRIDINIUM AND QUINOLINIUM DERIVATIVES” (TRASLATIONAL CANCER DRUGS PHARMA, S.L., priority 2010, published 2015)

Key:
[1] = Solubility in simulated biological media and dilution media; assay type: physicochemical; conditions: for Solubility of TCD717: 24 h stirring, room temperature
[2] = assay type: physicochemical
Experimental: The solubility of solid TCD717 at room temperature in prototype vehicles suitable for intravenous formulation and the behavior after five-fold dilution with 0.9% NaCl solutions was tested. Formulations were prepared by dissolving the components in water at the indicated concentration.

[3] = Solubility in saline solutions at different NaCl concentrations; assay type: physicochemical; conditions: NaCl 2, 5, 10, 20, 100 and 165 mM (FIG. 2)
Experimental: To obtain a greater insight on the sensitivity of the solubility for sodium and chloride ions, the solubility of TCD717 was tested in saline solutions at NaCl concentrations of 2, 5, 10, 20, 100 and 165 mM NaCl.

[4] = pH solubility profiling in Titrisol buffers (HPLC after filtration); assay type: physicochemical; conditions: 24 h, room temperature
Experimental: The pH solubility profile of compound TCD717 (compound No. 6, Q=Br) was assessed at pH 2-8. […] The TCD717 concentration after filtration through a 0.22 μm pore size PVDF filter was determined using HPLC.

[5] = Chemical stability of TCD717 in solution under stress conditions; assay type: physicochemical
Source text: The chemical stability of TCD717 (compound No. 6, Q=Br) in solution (which comprises MeOH/water 3:1 v/v and additional stress elements, as indicated in the Table) under various stress conditions is provided in the following Table.

[6] = Solubility testing in lipophilic and amphiphilic vehicles; assay type: physicochemical
Experimental: The solubility of TCD717 was determined in selected vehicles. […] The undissolved fraction of TCD717 was separated by filtration through a 0.22 μm pore size PVDF filter, and the filtrate was diluted before analyzing the TCD717 content by HPLC.

CN(c1ccc(Cl)cc1)c1cc[n+](Cc2ccc(-c3ccc(C[n+]4ccc(N(C)c5ccc(Cl)cc5)c5ccccc54)cc3)cc2)c2ccccc12.[Br-].[Br-] [TCD717]
Solubility of TCD717 ([1]; Glucose 5% (w/v)): 0.260 mg/mL | Solubility of TCD717 ([1]; Human Serum Albumin 2% (w/v)): 0.275 mg/mL | Solubility of TCD717 ([1]; Saline 0.9% (w/v)): 0.009 mg/mL | Solubility of TCD717 ([1]; Water): 0.200 mg/mL | Solubility in aqueous NaCl 0.9% ([1]; aqueous NaCl 0.9%): 9 µg/mL | Solubility in water ([1]; water at 25° C.): 0.2 mg/mL | Solubilization potential of the solubilizing agent for TCD717 [2]: highest solubilization potential | Precipitation after dilution ([2]; HP-β-CD composition, five-fold dilution with 0.9% NaCl solutions): no precipitation | Aqueous solubility as a function of NaCl concentration [3]: decreases at NaCl concentrations above 20 mM | TCD717 concentration (solubility) ([4]; Boron acid/HCl/NaOH 110 mM (Tritrisol), buffer pH 8): 0.003 mg/mL | TCD717 concentration (solubility) ([4]; Citrate/HCl 30 mM (Tritrisol), buffer pH 2): 0.045 mg/mL | TCD717 concentration (solubility) ([4]; Citrate/HCl 40 mM (Tritrisol), buffer pH 3): 0.032 mg/mL | TCD717 concentration (solubility) ([4]; Citrate/HCl 56 mM (Tritrisol), buffer pH 4): 0.008 mg/mL | TCD717 concentration (solubility) ([4]; Citrate/NaOH 60 mM (Tritrisol), buffer pH 6): 0.062 mg/mL | TCD717 concentration (solubility) ([4]; Citrate/NaOH 96 mM (Tritrisol), buffer pH 5): 0.006 mg/mL | TCD717 concentration (solubility) ([4]; Phosphate (K + Na+) 67 mM (Tritrisol), buffer pH 7): 0.86 mg/mL | TCD717 concentration (solubility) ([4]; Water, suspended at 5 mg/ml): 0.200 mg/mL | Observation (chemical stability) ([5]; MeOH/water 3:1 v/v, 0.1M HCl/1 day): No degradation observed | Observation (chemical stability), degradation ([5]; MeOH/water 3:1 v/v, 0.1M NaOH/1 day): Some degradation (~6%) | Observation (chemical stability) ([5]; MeOH/water 3:1 v/v, 3% H2O2 + 0.1M HCl): Complete degradation | Observation (chemical stability) ([5]; MeOH/water 3:1 v/v, 3% H2O2 + 0.1M NaOH): Complete degradation | Observation (chemical stability) ([5]; MeOH/water 3:1 v/v, 3% H2O2/1 day): No degradation observed | Stability ([5]; combinations of acidic/oxidizing and basic/oxidizing conditions): very unstable | Stability ([5]; under basic conditions): only moderately stable | Solubility ([6]; Cremophor EL35, at least 24 h at 45° C.): 0.78 mg/g | Solubility ([6]; Miglyol 812, at least 24 h at 45° C.): 0.002 mg/g | Solubility ([6]; Solutol HS15, at least 24 h at 45° C.): 2.3 mg/g | Affinity for detergents ([6]; Solutol HS 15 and Tween 80): low affinity | Solubility ([6]; Soya oil, at least 24 h at 45° C.): 0.015 mg/g | Solubility ([6]; Tween 80, at least 24 h at 45° C.): 3.1 mg/g | Solubility ([6]; soy oil and Miglyol): very low
